Measured values reported in patent publication US12139472B2, “Inhibitors of advanced glycation end products” (priority 2019, dated 2024).

Key:
CYP3A = assay type: in vitro ADME, human; details: HLM
Text: Compound 5 (PTG-630 free base) and 7 additional compounds for CYP3A P450 inhibition.
Imidazole (and benzimidazole) containing drugs are ubiquitous in pharmacological practice; however, drug-drug interactions (DDI) have been observed with some imidazole-containing classes, such as the antifungal azoles typified by ketoconazole. It is believed that the imidazole moiety accounts for their ability to inhibit CYP3A, the major DDI enzyme that metabolizes up to 50% of common drugs. The compounds of the disclosure incorporate an imidazole moiety attached to a pyridine ring via the imidazole C-2. They all share an imidazo-hydroxypyridine theme that can bind redox metal ions, while differing in the nature of the X side-chain. The potential of the compounds of the disclosure for DDI was evaluated by screening their inhibition of CYP3A.
Two studies were conducted in human liver microsomes (HLM). Lead candidate PTG-630 was tested using the Eurofins G232 panel (Drug Metab Dispos. 2001 January; 29(1):23-9), where inhibition was measured against seven CYP enzymes; CYP3A4 was tested using two different substrates, midazolam and testosterone. In a second study, inhibition of CYP3A4 (midazolam substrate only) was compared for 8 compounds of interest. The test protocol involved one-point measurements in duplicate, where inhibition was measured at a fixed 10 μM concentration of candidate inhibitors. In all cases, the substrate for each CYP enzyme was at a concentration equal to its specific Km value that was independently obtained from an 8-point dose-response study. Based on the observed value for percent inhibition for each test compound, we calculated of an IC50 assuming a competitive mode of inhibition. If percent inhibition for an inhibitor at a concentration of [I] is denoted by P, then: IC50=[I]*(100−P)/P In the single-point assay, [I] is 10 μM. If measured inhibition is 10%, then IC50=10*(100-10)/10=90 μM. […] As discussed in Lin et al. (J Pharm Sci. 2007 September; 96(9):2485-93; doi: 10.1002/jps.20884), CYP inhibition is broadly interpreted as being “potent” if IC50<1 μM, “moderate” if 1 μM<IC50<10 μM, and “weak” if IC50>10 μM.

[1] = Pharmacokinetic study for PTG-630 (IV and PO): plasma, whole blood, tissues, urine; assay type: in vivo, Sprague Dawley rats
Description: The samples were analyzed in two batches with standards and QCs prepared on rat plasma and rat urine. Analyst® 1.6 (SCIEX) software was used for statistical analysis of bioanalytical data. […] Dose samples collected at 0.083 h-6 h postdose were diluted 4 times with SD rat plasma prior to plating. Twenty-four (24) hours plasma samples were assayed without dilution. […] Two sciatic nerve samples were excluded from analysis, due to the insufficient sample size. […] The 12 non-cannulated animals were arbitrarily assigned to groups upon arrival and housed together throughout the experiment. The animals were acclimated to their designated housing for at least 24 hours before the first day of dosing. […] Blood samples were collected via cannula from IV dosed rats or by cardiac stick from PO dosed rats at the specified time points for sampling pharmacokinetics. Blood was collected into K2EDTA tubes. Tubes were mixed gently after blood collection, chilled and centrifuged at 3000 rpm, 4° C. within 30 minutes upon collection. The samples were centrifuged at 4° C. and the resultant plasma separated. […] Urine from Group 1 was collected via polycarbonate tubes from rats placed in drug metabolism cages. Urine was maintained and room temperature through the collection period.

[2] = PTG-4997 in kidneys after PTG-630 PO

## Cc1ncc(CO)c(-c2ncc[nH]2)c1O [PTG-4997]
CYP3A; midazolam, from one-point % inhibition at 10 μM, IC50=[I]*(100−P)/P
  Estimated IC50: — None
CYP3A; substrate midazolam at Km, Inhib Conc. 1.0E−05 M
  P % inhib: −4.9%
[1]; [2]
  MRT: 11.6 h
  Tmax: 6 h
  half-life: 2.36 h
[1]; Table 2, for PTG-4997 (metabolite) after PTG-630 IV 5 mg/kg, plasma, 0.083 h postdose, individual animals
  PTG-4997 (metabolite) concentration: <BLQ
[1]; Table 2, for PTG-4997 (metabolite) after PTG-630 IV 5 mg/kg, plasma, 0.5 h postdose, individual animals, 5 mg/kg
  PTG-4997 (metabolite) concentration: <BLQ
[1]; Table 2, for PTG-4997 (metabolite) after PTG-630 IV 5 mg/kg, plasma, 1 h postdose, individual animals
  PTG-4997 (metabolite) concentration: <BLQ
[1]; Table 2, for PTG-4997 (metabolite) after PTG-630 IV 5 mg/kg, plasma, 24 h postdose, individual animals
  PTG-4997 (metabolite) concentration: <BLQ
[1]; Table 2, for PTG-4997 (metabolite) after PTG-630 PO 100 mg/kg, brain, 0.5 h postdose, Mean
  PTG-4997 (metabolite) concentration: <BLQ
[1]; Table 2, for PTG-4997 (metabolite) after PTG-630 PO 100 mg/kg, brain, 0.5 h postdose, individual animals
  PTG-4997 (metabolite) concentration: <BLQ
[1]; Table 2, for PTG-4997 (metabolite) after PTG-630 PO 100 mg/kg, brain, 1 h postdose, Mean
  PTG-4997 (metabolite) concentration: <BLQ
[1]; Table 2, for PTG-4997 (metabolite) after PTG-630 PO 100 mg/kg, brain, 1 h postdose, individual animals
  PTG-4997 (metabolite) concentration: <BLQ
[1]; Table 2, for PTG-4997 (metabolite) after PTG-630 PO 100 mg/kg, brain, 2 h postdose, Mean
  PTG-4997 (metabolite) concentration: <BLQ
[1]; Table 2, for PTG-4997 (metabolite) after PTG-630 PO 100 mg/kg, brain, 2 h postdose, individual animals
  PTG-4997 (metabolite) concentration: <BLQ
[1]; Table 2, for PTG-4997 (metabolite) after PTG-630 PO 100 mg/kg, brain, 4 h postdose, Mean
  PTG-4997 (metabolite) concentration: <BLQ
[1]; Table 2, for PTG-4997 (metabolite) after PTG-630 PO 100 mg/kg, brain, 4 h postdose, individual animals
  PTG-4997 (metabolite) concentration: <BLQ
[1]; Table 2, for PTG-4997 (metabolite) after PTG-630 PO 100 mg/kg, brain, 6 h postdose, Mean
  PTG-4997 (metabolite) concentration: <BLQ
[1]; Table 2, for PTG-4997 (metabolite) after PTG-630 PO 100 mg/kg, brain, 6 h postdose, individual animals
  PTG-4997 (metabolite) concentration: <BLQ
[1]; Table 2, for PTG-4997 (metabolite) after PTG-630 PO 100 mg/kg, brain, 24 h postdose, Mean
  PTG-4997 (metabolite) concentration: <BLQ
[1]; Table 2, for PTG-4997 (metabolite) after PTG-630 PO 100 mg/kg, brain, 24 h postdose, individual animals
  PTG-4997 (metabolite) concentration: <BLQ
[1]; Table 2, for PTG-4997 (metabolite) after PTG-630 PO 100 mg/kg, kidney, 0.5 h postdose, Mean
  PTG-4997 (metabolite) concentration: 86.5 ng/mL
[1]; Table 2, for PTG-4997 (metabolite) after PTG-630 PO 100 mg/kg, kidney, 1 h postdose, Mean
  PTG-4997 (metabolite) concentration: 0 ng/mL
[1]; Table 2, for PTG-4997 (metabolite) after PTG-630 PO 100 mg/kg, kidney, 2 h postdose, Mean
  PTG-4997 (metabolite) concentration: 81 ng/mL
[1]; Table 2, for PTG-4997 (metabolite) after PTG-630 PO 100 mg/kg, kidney, 4 h postdose, Mean
  PTG-4997 (metabolite) concentration: 128 ng/mL
[1]; Table 2, for PTG-4997 (metabolite) after PTG-630 PO 100 mg/kg, kidney, 6 h postdose, Mean
  PTG-4997 (metabolite) concentration: 182.5 ng/mL
[1]; Table 2, for PTG-4997 (metabolite) after PTG-630 PO 100 mg/kg, kidney, 24 h postdose, Mean
  PTG-4997 (metabolite) concentration: 106 ng/mL
[1]; Table 2, for PTG-4997 (metabolite) after PTG-630 PO 100 mg/kg, liver, 0.5 h postdose, Mean
  PTG-4997 (metabolite) concentration: <BLQ
[1]; Table 2, for PTG-4997 (metabolite) after PTG-630 PO 100 mg/kg, liver, 0.5 h postdose, individual animals
  PTG-4997 (metabolite) concentration: <BLQ
[1]; Table 2, for PTG-4997 (metabolite) after PTG-630 PO 100 mg/kg, liver, 1 h postdose, Mean
  PTG-4997 (metabolite) concentration: <BLQ
[1]; Table 2, for PTG-4997 (metabolite) after PTG-630 PO 100 mg/kg, liver, 1 h postdose, individual animals
  PTG-4997 (metabolite) concentration: <BLQ
[1]; Table 2, for PTG-4997 (metabolite) after PTG-630 PO 100 mg/kg, liver, 2 h postdose, Mean
  PTG-4997 (metabolite) concentration: <BLQ
[1]; Table 2, for PTG-4997 (metabolite) after PTG-630 PO 100 mg/kg, liver, 2 h postdose, individual animals
  PTG-4997 (metabolite) concentration: <BLQ
[1]; Table 2, for PTG-4997 (metabolite) after PTG-630 PO 100 mg/kg, liver, 4 h postdose, Mean
  PTG-4997 (metabolite) concentration: <BLQ
[1]; Table 2, for PTG-4997 (metabolite) after PTG-630 PO 100 mg/kg, liver, 4 h postdose, individual animals
  PTG-4997 (metabolite) concentration: <BLQ
[1]; Table 2, for PTG-4997 (metabolite) after PTG-630 PO 100 mg/kg, liver, 6 h postdose, Mean
  PTG-4997 (metabolite) concentration: <BLQ
[1]; Table 2, for PTG-4997 (metabolite) after PTG-630 PO 100 mg/kg, liver, 6 h postdose, individual animals
  PTG-4997 (metabolite) concentration: <BLQ
[1]; Table 2, for PTG-4997 (metabolite) after PTG-630 PO 100 mg/kg, liver, 24 h postdose, Mean
  PTG-4997 (metabolite) concentration: <BLQ
[1]; Table 2, for PTG-4997 (metabolite) after PTG-630 PO 100 mg/kg, liver, 24 h postdose, individual animals
  PTG-4997 (metabolite) concentration: <BLQ
[1]; Table 2, for PTG-4997 (metabolite) after PTG-630 PO 100 mg/kg, muscle, 0.5 h postdose, Mean
  PTG-4997 (metabolite) concentration: <BLQ
[1]; Table 2, for PTG-4997 (metabolite) after PTG-630 PO 100 mg/kg, muscle, 0.5 h postdose, individual animals
  PTG-4997 (metabolite) concentration: <BLQ
